# “Also recorded” adds a separate entry of the source.
# Key:
# [1] = test system: paclitaxel-treated rats; assay: Paclitaxel-induced neuropathic pain model, paw withdrawal test; type: in vivo, rat; details: 100 mg/kg intraperitoneal; 1.5 h, 3 h, 4.5 h post dosing; vs vehicle (FIG. 20)
# Description: An estimated 30-40% of cancer patients undergoing chemotherapy experience peripheral neuropathic pain, a neuroinflammation-induced debilitating side effect that causes patients to stop their treatment early or take lower doses. The effects of CPT-2008 in reducing neuropathic pain were studied in paclitaxel-treated rats. After paclitaxel treatment for 8 days, Sprague-Dawley rats were housed for additional days. On day 22, 16 rats were randomly separated into two groups. One group was dosed with vehicle, and the other group was dosed via intraperitoneal injection with CPT-2008 at 100 mg/kg. Pain (mechanical allodynia) test subjects was assessed using a paw withdrawal test (PWT) as described by Xie (“Activation of notch signaling mediates the induction and maintenance of mechanical allodynia in a rat model of neuropathic pain.” Molecular Medicine Reports 12: 639-644, 2015). Rats were measured for paw withdrawal threshold post dosing of test compound at 1.5 h, 3 h, and 4.5 h.
# [2] = test system: GBM cells; assay: Mitochondrial morphology, TOM-20 immunostaining; type: cell-based, human; details: vs DMSO control (FIG. 16)
# Text: GBM cells treated with DMSO (control) or CPT-2008 in DMSO were immunostained for TOM-20 to reveal mitochondrial morphology.
# (§1) CPT-2008 affects mitochondrial function. […] Given the important role of mitochondria in maintaining cancer cells, especially cancer stem cells, the effects of CPT-2008 on a number of mitochondrial parameters in human glioblastoma (GBM) cells were texted next. First, the effects of CPT-2008 on mitochondrial ROS level were studied. For this purpose, the mito-SOX dye was used. Mito-SOX can specifically monitor mitochondrial ROS levels. […] The effect of CPT-2008 on mitochondrial membrane potential, a key factor that determines mitochondrial health and activity, was also measured using the TRM dye. […] The effect of CPT-2008 on mitochondrial calcium homeostasis was also measured using the Rhod-2AM dye, which specifically monitors mitochondrial calcium levels. […] The effect of CPT-2008 on mitochondrial morphology was also measured using immunostaining of the mitochondrial outer membrane marker Tom20. […] Finally, the effect of CPT-2008 on the self-renewal of GBM cells was tested.
# [3] = test system: NCI-H82; assay: CellTiter-Glo cell viability, NCI-H82 SCLC model; type: cell-based, human; details: NCI-H82, 72 hour incubation
# Description: (§2) Cell seeding (Day “−1”): The cell density of eight adherent cell lines was adjusted according to supplier-recommended information. 50 μL cells were seeded in four 384-well-plates, and 50 μL DPBS was added to the edge wells.
# (§3) Compound preparation (Day 0): All test compounds were dissolved in DMSO and stored in a nitrogen cabinet. The stock concentration of the test compounds was 120 mM. The stock concentration of the reference compounds was 10 mM. The reference compound paclitaxel was diluted with DMSO to provide a 400 μM stock solution.
# (§4) Cell treatment with test compounds (Day 0): Test compounds (125 nL in DMSO) were added to the wells using an ECHO liquid handling system (Labcyte Inc.) and serially diluted by three fold, providing 10 doses in each series with a maximum concentration of 300 μM. […]
# (§5) Assay (Day 3): After the cells were treated with the compounds for 72 hours, the plates were equilibrated at room temperature for approximately 30 minutes. 25 μL of CellTiter Glo reagent was added to each well, and the luminescence in each well was measured after 10 min using an ENVISION fluorescence plate reader (PerkinElmer). […]
# (§6) To evaluate the anti-tumor activity of CPT-2008, the growth inhibitory effect of the compound was measured in various human cancer cell lines after 72 hour incubation. […] The data recorded for the paclitaxel reference compound were consistent with the historical published data.
# [4] = test system: U118MG; assay: CellTiter-Glo cell viability, U118MG glioblastoma model; type: cell-based, human; details: 72 hour incubation
# Description: as §2, §3, §4, §5, §6
# [5] = in vitro; type: in vitro ADME; details: human
# [6] = test system: NCI-H446; assay: CellTiter-Glo cell viability, NCI-H446 SCLC model; type: cell-based, human; details: NCI-H446, 72 hour incubation
# Description: as §2, §3, §4, §5, §6
# [7] = test system: A549; assay: CellTiter-Glo cell viability, A549 NSCLC model; type: cell-based, human; details: A549, 72 hour incubation
# Description: as §2, §3, §4, §5, §6
# [8] = test system: Sprague-Dawley rats; assay: Rat middle cerebral artery occlusion (MCAO) stroke model; type: in vivo; details: rat MCAO 1.5 h, 24 h reperfusion; 25-100 mg/kg intraperitoneally 0 h and 8 h after reperfusion; TTC staining; compared with edaravone 6 mg/kg
# Description: Edaravone (3-methyl-1-phenyl-2-pyrazolin-5-one) is a reactive oxygen species (ROS) scavenger approved for the treatment of stroke and ALS in Japan, and for the treatment of ALS in the United States. The efficacy of CPT-2008 for preventing brain damage in a rat middle cerebral artery occlusion (MCOA) model was compared with the efficacy of edaravone. Sprague-Dawley rats were dosed with vehicle, edaravone (6 mg/kg), or CPT-2008 (25-100 mg/kg), and the level of infarcted brain tissue was assessed. In this study rats underwent middle cerebral artery occlusion (MCAO) for 1.5 h followed by 24 h reperfusion. CPT-2008 was given intraperitoneally 0 h and 8 h after reperfusion, and behavior deficits and brain insult were assessed by Longa score scale and TTC staining, respectively. […] It is believed that the improved benefit of CPT-2008 is due, in part, to prevention ROS formation in brain tissue mitochondria.
# [9] = test system: human GBM cells; assay: Self-renewal of GBM cells (neurosphere formation); type: cell-based; details: 20 uM CPT-2008 vs DMSO vehicle (FIG. 18)
# Description: Control: cells treated with DMSO vehicle; CPT-2008: cells treated with 20 uM CPT-2008.
# as §1
# [10] = test system: T98G; assay: CellTiter-Glo cell viability, T98G glioblastoma model; type: cell-based, human; details: 72 hour incubation
# Description: as §2, §3, §4, §5, §6
# [11] = test system: Molt-4; assay: CellTiter-Glo cell viability, Molt-4 T-ALL model; type: cell-based, human; details: Molt-4, 72 hour incubation
# Description: as §2, §3, §4, §5, §6
# [12] = in vitro; type: in vitro ADME; details: human; remark: listed apart in the source
# [13] = test system: human GBM cells; assay: Mitochondrial ROS, Mito-SOX staining; type: cell-based; details: vs DMSO control (FIG. 15)
# Text: GBM cells treated with DMSO vehicle (control) or with CPT-2008 in DMSO were stained with Mito-SOX to probe mitochondrial ROS level.
# as §1
# [14] = test system: human GBM cells; assay: Mitochondrial calcium, Rhod-2AM staining; type: cell-based; details: vs DMSO control (FIG. 14)
# Text: GBM cells treated with DMSO vehicle (control) or with CPT-2008 in DMSO were stained with Rhod-2AM to probe mitochondrial calcium (mito-Ca^2+) level. CPT-2008 elevated mito-Ca^2+.
# as §1
# [15] = test system: A2780; assay: CellTiter-Glo cell viability, A2780 ovarian cancer model; type: cell-based, human; details: A2780, 72 hour incubation
# Description: as §2, §3, §4, §5, §6
# [16] = test system: NCI-H1299; assay: CellTiter-Glo cell viability, NCI-H1299 NSCLC model; type: cell-based, human; details: NCI-H1299, 72 hour incubation
# Description: as §2, §3, §4, §5, §6
# [17] = test system: Jurkat; assay: CellTiter-Glo cell viability, Jurkat T cell leukemia model; type: cell-based, human; details: 72 hour incubation
# Description: as §2, §3, §4, §5, §6
# [18] = test system: human GBM cells; assay: Mitochondrial membrane potential, TMRM staining; type: cell-based; details: vs DMSO vehicle (FIG. 17)
# Text: GBM cells treated with DMSO vehicle or with CPT-2008 in DMSO were stained with TMRM to probe mitochondrial membrane potential.
# as §1
# [19] = Pharmacokinetics in Sprague-Dawley rats (plasma and brain); type: in vivo, rat; details: for bioavailability: Sprague-Dawley, rat, in vivo
# Description: Sprague-Dawley rats were administered CPT-2008 by IV or PO. Blood samples (about 1 mL) were collected via cardiac puncture after euthanasia by carbon dioxide inhalation at 5 min, 15 min, 30 min, 1 h, 2 h, 4 h, 8 h, 24 h of post dose. Blood samples were placed into tubes containing heparin sodium and centrifuged at 3500 rpm for 10 minutes at 4° C. to separate plasma from the samples. Following centrifugation, the resulting plasma was transferred to labeled tubes and stored frozen at −80° C. pending bioanalysis. The brain each studied animal at each time point was collected after the animal was euthanized by carbon dioxide inhalation. The whole tissue was harvested, excised and then placed into one tube per tissue per animal. The tissue samples were placed on dry ice and then stored at −80° C. until bioanalysis.
# [20] = test system: HCT116; assay: CellTiter-Glo cell viability, HCT116 colorectal cancer model; type: cell-based, human; details: HCT116, 72 hour incubation
# Description: as §2, §3, §4, §5, §6
# [21] = test system: MCF7; assay: CellTiter-Glo cell viability, MCF7 breast cancer model; type: cell-based, human; details: MCF7, 72 hour incubation
# Description: as §2, §3, §4, §5, §6
smiles,measurement,setting,value
"COc1cc(-n2c(S)nc3cc(OC)c(Cl)cc3c2=O)c(Cl)cc1Cl [CPT-2008, 6-chloro-3-(2,4-dichloro-5-methoxyphenyl)-2-mercapto-7-methoxyquinazolin-4(3H)-one]",paw withdrawal threshold (mechanical allodynia),[1],increased threshold values
same,mitochondrial morphology,[2],dramatic fragmentation of mitochondria; also recorded: induced mitochondrial size reduction
same,IC50,[3],nM range
same,IC50,[4],low μM range
same,stability in microsomes,[5],excellent stability
same,half-life,[5]; microsomes,~3.6 h
same,IC50,[6],nM range
same,IC50,[7],low μM range
same,level of infarcted (dead) brain tissue,[8],reduced levels of dead brain tissue
same,self-renewal of GBM cells (ability to form neurospheres),[9],significantly inhibited; also recorded: lost such ability
same,IC50,[10],low μM range
same,IC50,[11],low μM range
same,stability in hepatocytes,[12],excellent stability
same,half-life,"[12]; hepatocytes, half-life",~94.3 h
same,mitochondrial ROS level,[13],significant increase; also recorded: significantly elevated
same,mitochondrial calcium (mito-Ca2+) level,[14],caused an increase; also recorded: elevated
same,IC50,[15],nM range
same,IC50,[16],low μM range
same,IC50,[17],nM range
same,mitochondrial membrane potential,[18],dramatic reduction; also recorded: dramatically reduced
same,crossing of the blood brain barrier,"[19]; Sprague-Dawley rats, IV or PO (FIG. 21A, 21B)",efficiently cross the blood brain barrier
same,bioavailability,[19]; brain bioavailability,39%
same,bioavailability,[19]; plasma bioavailability,94.5%
same,IC50,[20],low μM range
same,IC50,[21],low μM range
